Reference: ChEMBL document CHEMBL3272098, “Reactions of 2-acyloxyisobutyryl halides with nucleosides. 7. Synthesis and biological evaluation of some 2,2'-anhydro-1(3',5'-di-O-acyl-beta-D-arabinofuranosyl)cytosine hydrochlorides” (J Med Chem, 1976)
pEC50: −log10 of the molar value. Activity calls are given as the source filed them. No cut-off for these calls is given here.

Legend:
L1210 [1] = experiment: Antitumor activity against mouse L1210 cells allografted in BDF1 mouse assessed as increase in life span at 50 mg/kg, ip administered 24 hrs post-implantation measured up to 30 days relative to control; type: functional; details: route intraperitoneal
HeLa = experiment: Cytotoxicity against human HeLa cells after 48 hrs by Coulter counting analysis; type: functional; details: read-out: ED50 (the source's name)
Vaccinia virus = experiment: Antiviral activity against Vaccinia virus IHD infected in African green monkey BGM cells after 6 days by plaque reduction assay; type: functional; details: Orthopoxvirus vaccinia, 144 h, read-out: ED50 (the source's name)
L1210 [2] = experiment: Antitumor activity against mouse L1210 cells allografted in BDF1 mouse assessed as survival at 1000 mg/kg, ip administered 24 hrs post-implantation after 30 days; type: functional, organism-based; set-up: dose 1000 mg/kg
BGM = experiment: Antiviral activity against Poliovirus type 1 Mahoney infected in African green monkey BGM cells after 5 days by pulp disk diffusion assay; type: functional, cell-based; details: Human poliovirus 1 Mahoney
Herpesviridae sp. = experiment: Antiviral activity against Herpes simplex virus HF infected in African green monkey BGM cells after 6 days by plaque reduction assay; type: functional; details: 144 h, read-out: ED50 (the source's name)
L1210 [3] = experiment: Antitumor activity against mouse L1210 cells allografted in BDF1 mouse assessed as increase in life span at 200 mg/kg, ip administered 24 hrs post-implantation measured up to 30 days relative to control; type: functional; details: route intraperitoneal
L1210 [4] = experiment: Antitumor activity against mouse L1210 cells allografted in BDF1 mouse assessed as increase in life span at 1000 mg/kg, ip administered 24 hrs post-implantation measured up to 30 days relative to control; type: functional; details: route intraperitoneal
Measles morbillivirus = experiment: Antiviral activity against Measles virus infected in African green monkey BGM cells after 5 days by pulp disk diffusion assay; type: functional, organism-based
L1210 [5] = experiment: Antitumor activity against mouse L1210 cells allografted in BDF1 mouse assessed as survival at 50 mg/kg, ip administered 24 hrs post-implantation after 30 days; type: functional, organism-based; set-up: dose 50 mg/kg
L1210 [6] = experiment: Antitumor activity against mouse L1210 cells allografted in BDF1 mouse assessed as survival at 500 mg/kg, ip administered 24 hrs post-implantation after 30 days; type: functional, organism-based; set-up: dose 500 mg/kg
[7] = system: unidentified influenza virus; experiment: Antiviral activity against Influenza virus Ao/WNS infected in monkey LLC-MK2 cells after 5 days by pulp disk diffusion assay; type: functional, organism-based
L1210 [8] = experiment: Antitumor activity against mouse L1210 cells allografted in BDF1 mouse assessed as increase in life span at 500 mg/kg, ip administered 24 hrs post-implantation measured up to 30 days relative to control; type: functional; details: route intraperitoneal
L1210 [9] = experiment: Antitumor activity against mouse L1210 cells allografted in po dosed BDF1 mouse administered 24 hrs post-implantation; type: functional, organism-based
L1210 [10] = experiment: Antitumor activity against mouse L1210 cells allografted in BDF1 mouse assessed as survival at 200 mg/kg, ip administered 24 hrs post-implantation after 30 days; type: functional, organism-based; set-up: dose 200 mg/kg
Mus musculus [11] = experiment: Toxicity in BDF1 mouse allografted with mouse L1210 cells assessed as reduction in average life span at 1000 mg/kg, ip administered 24 hrs post-implantation measured up to 30 days relative to control; type: organism-based; set-up: dose 1000 mg/kg, route intraperitoneal; scale not given: the % may be the effect or the level left; details: in vivo
Mus musculus [12] = experiment: Toxicity in BDF1 mouse allografted with mouse L1210 cells assessed as survival at 1000 mg/kg, ip administered 24 hrs post-implantation after 30 days; type: organism-based; set-up: dose 1000 mg/kg, route intraperitoneal; details: in vivo, 720 h
Mus musculus [13] = experiment: Toxicity in BDF1 mouse allografted with mouse L1210 cells assessed as reduction in average life span at 500 mg/kg, ip administered 24 hrs post-implantation measured up to 30 days relative to control; type: organism-based; set-up: dose 500 mg/kg, route intraperitoneal; scale not given: the % may be the effect or the level left; details: in vivo
Mus musculus [14] = experiment: Toxicity in BDF1 mouse allografted with mouse L1210 cells assessed as survival at 500 mg/kg, ip administered 24 hrs post-implantation after 30 days; type: organism-based; set-up: dose 500 mg/kg, route intraperitoneal; details: in vivo, 720 h

Compound	ILS at 50 mg/kg (L1210 [1])	EC50 (HeLa)	pEC50 (Vaccinia virus)	Activity (L1210 [2])	Activity (BGM)	pEC50 (Herpesviridae sp.)	ILS at 200 mg/kg (L1210 [3])	ILS at 1000 mg/kg (L1210 [4])	Activity (Measles morbillivirus)	Activity (L1210 [5])	Activity (L1210 [6])	Activity [7]	ILS at 500 mg/kg (L1210 [8])	Activity (L1210 [9])	Activity (L1210 [10])	Activity (Mus musculus [11])	Activity (Mus musculus [12])	Activity (Mus musculus [13])	Activity (Mus musculus [14])
CCCCCCCC/C=C/CCCCCCCC(=O)OC[C@H]1O[C@@H]2[C@@H](Oc3nc(=N)ccn32)[C@@H]1OC(=O)CCCCCCC/C=C/CCCCCCCC.Cl	114%	1.4 µg/mL	5.33	inactive	inactive	5.03	> 258%	11%	inactive	inactive	Active	inactive	> 257%	inactive	–	–	–	–	–
CCCCCCCC(=O)OC[C@H]1O[C@@H]2[C@@H](Oc3nc(=N)ccn32)[C@@H]1OC(=O)CCCCCCC.Cl	–	0.1 µg/mL	6.25	–	inactive	5.87	28%	–	inactive	–	–	inactive	–	inactive	inactive	–	–	–	–
CCCC(=O)OC[C@H]1O[C@@H]2[C@@H](Oc3nc(=N)ccn32)[C@@H]1OC(=O)CCC.Cl	–	0.11 µg/mL	5.81	–	inactive	5.31	58%	–	inactive	–	inactive	inactive	85%	inactive	inactive	100%	Toxic	–	–
CC(=O)OC[C@H]1O[C@@H]2[C@@H](Oc3nc(=N)ccn32)[C@@H]1OC(C)=O.Cl	–	0.2 µg/mL	6.16	–	inactive	5.62	7%	–	inactive	–	–	inactive	–	inactive	inactive	–	–	–	–
Cl.N=c1ccn2c(n1)O[C@H]1[C@H](O)[C@@H](CO)O[C@H]12 [ANCITABINE HYDROCHLORIDE]	–	0.06 µg/mL	6.39	inactive	inactive	6.15	25%	89%	inactive	–	inactive	inactive	67%	inactive	inactive	–	–	–	–
CCCCCCCCCCCC(=O)OC[C@H]1O[C@@H]2[C@@H](Oc3nc(=N)ccn32)[C@@H]1OC(=O)CCCCCCCCCCC.Cl	> 195%	0.48 µg/mL	6.15	–	inactive	5.46	> 310%	–	inactive	–	–	inactive	–	inactive	Active	18%	Toxic	23%	Toxic
CCCCCCCCCCCCCCCCCC(=O)OC[C@H]1O[C@@H]2[C@@H](Oc3nc(=N)ccn32)[C@@H]1OC(=O)CCCCCCCCCCCCCCCCC.Cl	68%	3.8 µg/mL	< 4.52	Active	inactive	< 4.52	125%	> 255%	inactive	inactive	–	inactive	–	inactive	inactive	–	–	–	–
CCCCCCCCCCCCCCCCCCCCCC(=O)OC[C@H]1O[C@@H]2[C@@H](Oc3nc(=N)ccn32)[C@@H]1OC(=O)CCCCCCCCCCCCCCCCCCCCC.Cl	15%	> 10 µg/mL	< 4.52	inactive	inactive	< 4.52	55%	139%	inactive	inactive	–	inactive	–	inactive	inactive	–	–	–	–
CCCCCCCCCCCCCCCCCCCC(=O)OC[C@H]1O[C@@H]2[C@@H](Oc3nc(=N)ccn32)[C@@H]1OC(=O)CCCCCCCCCCCCCCCCCCC.Cl	8%	2.5 µg/mL	< 4.52	inactive	inactive	< 4.52	31%	107%	inactive	inactive	–	inactive	–	inactive	inactive	–	–	–	–
